How the values were obtained:
[1] = molecular target: T1, norepinephrine transporter (NET), uptake 1 (Oryctolagus cuniculus, UniProt G1TDF9); test: Heart uptake in rabbits after uptake 1 blockade (desipramine) or 6-hydroxydopamine sympathetic denervation; format: in vivo; conditions: rabbits
T1 construct: from tissue; host or cells: rabbit heart, in vivo
Experimental: (§1) Imaging agent-1 was designed as a substrate for the norepinephrine transporter (NET) to image the cardiac sympathetic nervous system. […] These values were similar to that of MIBG (2.12±0.26 μM and 4.76±0.78 pmol/min/million cells). In animals, tissue biodistribution of imaging agent-1 was assessed by tissue sampling at 15- and 60-minute following administration. Heart uptake was 2.36±0.16 and 2.17±0.12% injected dose per g tissue (% ID/g) in rats and 0.25±0.03 and 0.28±0.03% ID/g in rabbits. In rabbits, desipramine (1 mg/kg) inhibited heart uptake of imaging agent-1 by 68% and ^123I-MIBG uptake by 55% at 1 hour post dose.
(§2) Desipramine, a selective uptake 1 inhibitor, was used to block cardiac uptake 1 in rats (10 mg/kg, ip), rabbits (1 mg/kg iv), and NHPs (0.5 mg/kg, iv). 6-hydroxydopamine, a neurotoxin, was injected to induce sympathetic denervation in rats (100 mg/kg ip for 7 days) and rabbits (25 mg/kg iv on day 1, 2, 7, and 8). Imaging agent-1 heart uptake in comparison with MIBG was assessed by tissue sampling at 60 minutes post imaging agent injection. Imaging was also performed with (2-tert-butyl-4-chloro-5-[4-(2-[^18F]fluoroethoxymethyl)-benzyloxy]-2H-pyridazin-3-1.

[2] = Tissue biodistribution by tissue sampling in rats; format: in vivo
Experimental: as §1

[3] = Cardiac PET imaging in rabbit models of regional and systemic cardiac sympathetic denervation (CSD); format: in vivo, rabbits
Experimental: Rabbit models of regional and systemic CSD were used. To develop regional CSD, a median sternotomy was performed and phenol (89% in liquid) was pained on the anterior and posterior walls of the left ventricle. To develop systemic denervation the neurotoxin, 6-hydroxydopamine (25 mg/kg on day 1, 2, 7 and 8), was administered intravenously. Two weeks following these procedures, rabbits were imaged with imaging agent-1 (˜1.5 mCi, i.v.) using a microPET camera for 30 minutes.

[4] = system: norepinephrine transporter (NET), uptake 1; test: Cardiac imaging in NHPs pretreated with desipramine; format: in vivo, nonhuman primates (NHP); conditions: desipramine 0.5 mg/kg
Experimental: as §1, §2

[5] = molecular target: T2, norepinephrine transporter (NET) (Homo sapiens, UniProt P23975); test: Uptake and uptake kinetics in SH-SY5Y human neuroblastoma cells; format: cell-based
T2 construct: endogenous in cells; host or cells: SH-SY5Y
T2 sequence (P23975 whole entry): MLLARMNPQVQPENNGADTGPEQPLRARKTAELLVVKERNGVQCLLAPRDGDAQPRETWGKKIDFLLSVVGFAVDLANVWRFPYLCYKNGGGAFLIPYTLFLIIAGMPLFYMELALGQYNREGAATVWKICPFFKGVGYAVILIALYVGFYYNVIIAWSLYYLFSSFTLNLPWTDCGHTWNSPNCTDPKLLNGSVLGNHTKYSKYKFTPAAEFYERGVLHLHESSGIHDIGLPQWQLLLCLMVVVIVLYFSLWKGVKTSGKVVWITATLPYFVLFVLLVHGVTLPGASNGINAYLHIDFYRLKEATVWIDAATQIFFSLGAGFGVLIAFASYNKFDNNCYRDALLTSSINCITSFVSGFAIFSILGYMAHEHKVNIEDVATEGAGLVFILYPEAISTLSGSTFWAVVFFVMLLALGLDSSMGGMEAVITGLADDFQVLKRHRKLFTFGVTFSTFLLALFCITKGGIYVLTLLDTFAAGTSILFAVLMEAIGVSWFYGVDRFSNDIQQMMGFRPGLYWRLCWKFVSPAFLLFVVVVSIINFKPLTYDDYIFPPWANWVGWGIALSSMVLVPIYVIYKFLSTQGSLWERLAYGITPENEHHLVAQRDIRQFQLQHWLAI
Experimental: as §1

[6] = molecular target: T3, NET (Homo sapiens, UniProt P23975); test: NET mediated uptake kinetics in SK-N-SH cells; format: cell-based; design: endogenous in cells; host or cells: SK-N-SH
T3 sequence (P23975 whole entry): as above
Experimental: (§3) The affinity (Ki) was determined in a competition binding assay by incubating ^19F-imaging agent-1, a cold analog of imaging agent-1, or NE with ^3H-desmethylimipramine in cell membrane overexpressing human NET. The uptake selectivity was assessed by measuring imaging agent-1 or ^3H-NE cell uptake with and without pretreatment of desipramine, a selective NET inhibitor, in SK—N—SH (human neuroblastoma) and PC-12 (rat pheochromocytoma) cells. In SK—NSH cells, the uptake kinetics (Km and Vmax) were evaluated by measuring NET mediated uptake of imaging agent-1 or NE at various concentrations. Imaging agent-1 cardiac image quality was evaluated by PET imaging (˜1.5 mCi, i.v.) in rabbits in the presence and absence of desipramine (1 mg/kg).

[7] = Regional myocardial radioactivity concentration by dynamic PET in normal subjects; format: in vivo, human
Experimental: A human study was performed that determined the quantification of normal pattern of regional myocardial radioactivity concentration of imaging agent-1.
Normal subjects (n=6) were injected with ˜220 MBq of imaging agent-1 intravenously, and dynamic PET images were acquired over 80 min without patient movement. Attenuation corrected images were re-oriented into standard cardiac specific axes, and the maximal regional myocardial uptake was quantified on a sector-by-sector basis using WLCQ software. […] Activity was expressed as Bq/ml.

[8] = molecular target: T4, NET (Rattus norvegicus, UniProt Q63380); test: Cell uptake selectivity with and without desipramine in PC-12 cells; format: cell-based
T4 construct: endogenous in cells; host or cells: PC-12
T4 sequence (Q63380 1-617): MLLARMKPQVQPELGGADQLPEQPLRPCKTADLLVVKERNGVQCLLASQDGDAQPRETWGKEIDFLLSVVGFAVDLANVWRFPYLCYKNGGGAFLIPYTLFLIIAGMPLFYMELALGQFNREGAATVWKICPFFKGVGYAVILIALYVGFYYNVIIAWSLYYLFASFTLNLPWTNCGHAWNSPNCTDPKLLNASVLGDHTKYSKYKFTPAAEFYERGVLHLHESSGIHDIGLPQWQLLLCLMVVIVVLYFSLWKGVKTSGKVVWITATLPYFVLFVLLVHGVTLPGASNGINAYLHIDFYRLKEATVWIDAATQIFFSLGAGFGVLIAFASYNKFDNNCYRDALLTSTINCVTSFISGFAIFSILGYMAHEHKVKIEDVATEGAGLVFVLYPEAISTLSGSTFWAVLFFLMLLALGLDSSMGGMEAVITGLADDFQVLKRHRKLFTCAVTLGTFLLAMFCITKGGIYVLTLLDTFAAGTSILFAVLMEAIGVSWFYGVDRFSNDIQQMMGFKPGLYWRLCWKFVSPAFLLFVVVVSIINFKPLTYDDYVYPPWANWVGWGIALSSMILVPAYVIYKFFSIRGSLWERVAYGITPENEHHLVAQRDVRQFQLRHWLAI
Experimental: as §3

[9] = Whole organ bio-distribution and dosimetry from PET in healthy subjects; format: in vivo, human
Experimental: Whole organ bio-distribution and dosimetry for ^18F-labeled imaging agent-1 were determined based on PET image data from twelve healthy subjects. Image quantification, kinetic modeling to determine residence times, and dosimetry analysis were performed.
Head to mid-thigh PET image data for twelve healthy subjects were obtained using ^18F labeled imaging agent-1 at approximately 17, 31, 45, 117, 190, and 225 minutes post injection. Additionally, leg images were also obtained at approximately 66 and 274 minutes post injection. Image data were attenuation corrected at the imaging site, and were quantified based on the Medical Internal Radiation Dosimetry (MIRD) 16 methodology to determine kinetic data in all organs showing significant uptake of activity. Dosimetry estimates were created via kinetic modeling of the quantified image data to determine residence times, and the standard MIRD methodology using a method similar. Kinetic data, residence times, and the dosimetry estimates were reported for each subject and as summary statistics.

[10] = molecular target: T3, NET; test: Effect of heart failure medications on NET mediated imaging agent-1 uptake in SK-N-SH cells; format: cell-based; design: endogenous in cells; host or cells: SK-N-SH; conditions: 1 million cells, 60 minutes

T1 sequence (G1TDF9 1-617): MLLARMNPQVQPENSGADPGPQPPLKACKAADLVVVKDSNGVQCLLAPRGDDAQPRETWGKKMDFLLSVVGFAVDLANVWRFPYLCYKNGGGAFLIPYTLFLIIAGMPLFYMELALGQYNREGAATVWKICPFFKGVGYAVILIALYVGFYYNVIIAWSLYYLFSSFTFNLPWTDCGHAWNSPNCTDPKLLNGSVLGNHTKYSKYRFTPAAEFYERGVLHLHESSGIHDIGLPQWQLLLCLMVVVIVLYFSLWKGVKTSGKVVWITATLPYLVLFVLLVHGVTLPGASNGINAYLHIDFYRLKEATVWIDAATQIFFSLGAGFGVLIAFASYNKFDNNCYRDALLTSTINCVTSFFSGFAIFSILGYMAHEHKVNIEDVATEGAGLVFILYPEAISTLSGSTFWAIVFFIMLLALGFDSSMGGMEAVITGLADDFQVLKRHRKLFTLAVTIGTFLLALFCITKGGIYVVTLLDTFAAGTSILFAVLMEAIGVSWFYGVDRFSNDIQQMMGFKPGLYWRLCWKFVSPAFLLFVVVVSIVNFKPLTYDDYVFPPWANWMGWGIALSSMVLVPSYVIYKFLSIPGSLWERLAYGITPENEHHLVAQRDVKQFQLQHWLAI

N=C(N)NCc1ccc(OCCC[18F])c(Br)c1 [imaging agent-1, 1-{3-Bromo-4-[3-[^18F]fluoropropoxy]benzyl}guanidine]
Decrease in heart uptake after sympathetic denervation with 6-hydroxydopamine ([1]; 6-OHDA i.v.): 79% | Inhibition of heart uptake by desipramine (uptake 1 blockade) ([1]; desipramine 1 mg/kg, 1 hour post dose): 68% | Heart uptake ([2]; 15-minute following administration): 2.36±0.16 % ID/g | Heart uptake ([2]; 60-minute following administration): 2.17±0.12 % ID/g | Global reduction in heart uptake compared to control animals (image based quantification) ([3]; rabbits with systemic denervation (6-hydroxydopamine)): ~80% | Uptake in the treated regions after regional denervation ([3]; rabbits, phenol regional denervation): marked reduction | Decrease of radioactivity in the heart by desipramine pretreatment (cardiac imaging) [4]: 68% | Vmax (uptake kinetics) ([5]; SH-SY5Y cells): 5.18±1.23 pmol/min/million cells | Uptake in SH-SY5Y cells in presence of desipramine, a selective NET inhibitor ([5]; SH-SY5Y human neuroblastoma cell line): inhibited by desipramine | Vmax (NET mediated uptake) [6]: 6.0±1.3 pMol/million cells/min | Clearance of radiotracer from blood ([7]; normal subjects n=6, ~220 MBq iv): cleared quickly from the blood | Time at which myocardial activity reached a plateau ([7]; post injection): ~60 min | Time of peak of regional and global myocardial activity ([7]; post injection): ≤ 10 min | Myocardial uptake, Apical short axis slice ([7]; ~60 min post injection): 11678±2148 Bq/ml | Myocardial uptake, Base short axis slice ([7]; ~60 min post injection): 11284±2844 Bq/ml | Myocardial uptake, Mid short axis slice ([7]; ~60 min post injection): 11898±2047 Bq/ml | Regional myocardial uptake, Anterior sector ([7]; ~60 min post injection): 11592±2474 Bq/ml | Regional myocardial uptake, Inferior sector ([7]; ~60 min post injection): 11818±1991 Bq/ml | Regional myocardial uptake, Lateral sector ([7]; ~60 min post injection): 11424±2439 Bq/ml | Regional myocardial uptake, Septal sector ([7]; ~60 min post injection): 11647±2829 Bq/ml | Inhibition of cell uptake by blockade of NET (desipramine) [8]: 66±7% | Ratio of myocardial to liver radioactivity ([9]; at 4 hours): more than two | Peak uptake, liver ([9]; average): approximately 15.5 % of the injected activity | Peak uptake, urinary bladder ([9]; average): approximately 18.3 % of the injected activity | Injected dose remaining in the myocardium ([9]; decay-corrected, through 4 hours after injection): above 1.5 % of ID | Blood radioactivity clearance ([9]; human, in vivo): cleared quickly | Lung activity ([9]; human, in vivo): low throughout the study | Tolerability ([9]; human, in vivo): well tolerated | Injected dose seen in the myocardium initially ([9]; initially): Approximately 1.6 % of the injected dose (ID) | Ratio of myocardial to liver radioactivity ([9]; initially): approximately one | Adverse events ([9]; twelve healthy subjects): No adverse events | Cell uptake [10]: 26±2%

Source: patent US11174223B2, “Compositions, methods, and systems for the synthesis and use of imaging agents” (Lantheus Medical Imaging, Inc., priority 2010, dated 2021)
